# Experimental data taken from patent US20080145313A1, “Compositions and Methods for the Treatment and Prevention of Neoplastic Disorders” (Genesis Research & Development Corporation Limited, priority 2006, published 2008).
# Marks after values point to notes of the source that are not given here.
# What was measured:
# A549 cells = assay: Growth inhibition of siRNA-transfected A549 cells, SYBR Green I DNA content; format: cell-based, human; details: for Growth Inhibition in A549 cells by 10 nM siRNA: transporter gene targets; for growth inhibition, A549 cells: standardized against control siRNA
# Method in brief: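 A549 cells reverse-transfected with 10 nM Stealth siRNAs via Lipofectamine RNAiMAX, seeded at 5×10^3 cells/cm^2 in RPMI 1640/10% FCS; non-specific siRNA control. DNA content read 96 h post-transfection by SYBR Green I fluorescence (ex 485/em 535 nm) after freeze-thaw and Triton X-100 lysis; mean of three wells.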
# wt HCT-116 cells = assay: Growth inhibition of siRNA-transfected wt HCT-116 cells, SYBR Green I DNA content; format: cell-based; details: standardized against control siRNA
# Protocol: (§1) A549 cells (human lung cancer cell line; ATCC No. CCL-185), SK-MeI-5 cells (human melanoma cell line; ATCC No. HTB-70), MCF-7 cells (human adenocarcinoma cell line; ATCC No. HTB-22), HCT-116 cells (colorectal carcinoma; ATCC CCL-247) and HCT-116 p53 null cells (derived from ATCC No. CCL-247; Bunz et al., Science 282:1497-1501, 1998) were cultured in RPMI 1640 medium with 10% v/v heat-inactivated fetal calf serum (FCS). Cells were seeded at a density of 5×10^4 cells/cm^2 in multi-well tissue culture plates. Sequences of Stealth™ siRNA duplexes (Invitrogen) targeting human ribonucleotide reductase subunit 1 (SEQ ID NO: 22) and subunit 2 (SEQ ID NO; 38) are given in SEQ ID NO: 4830-4832 (DNA), and SEQ ID NO: 5136-5138 (RNA) for RRM1, and SEQ ID NO: 5306-5308 (DNA), and SEQ ID NO: 5303-5305 (RNA) for RRM2. siRNAs were transfected at different concentrations into cells using Lipofectamine™ RNAiMAX transfection reagent (Invitrogen). Non-specific siRNA (SEQ ID NO: 4804 and 4805 (DNA), and SEQ ID NO: 5301 and 5302 (RNA)) were used as controls. The cellular DNA content was measured using a SYBR Green I-based fluorometric assay at 24, 48, 72 and 96 hours after transfection (120 hours for the MCF-7 cells), as follows. At the indicated time points following reverse transfection, cells were harvested and frozen at −80° C. overnight. Cells were thawed and cell lysis buffer (phosphate-buffered saline (PBS) containing 1% Triton X-100, pH 7) and SYBR Green I (1:10^5 V/V; Invitrogen) was added to the wells and incubated overnight in the dark at 4° C.
# (§2) The following day, cell lysates were mixed thoroughly, and DNA fluorescence was measured with a Wallac Victor^2 plate reader (Turku, Finland) set at an excitation frequency of 485 nm and measuring emission at 535 nm.
# (§3) To determine the effect of the p53-status of cells on RRM1 and RRM2 knockdown, growth inhibition of wild type (wt) HCT-116 and p53 null HCT-116 cells by RRM1 and RRM2-targeted siRNA were determined. Cells were reverse transfected with 1.0 and 10 nM RRM1-3 (SEQ ID NO: 4832 (DNA), and SEQ ID NO: 5138 (RNA)), 1.0 and 10 nM RRM2-2 (SEQ ID NO: 5307 (DNA), and SEQ ID NO: 5304 (RNA)) or 10 nM control siRNA (SEQ ID NO: 4804 (DNA), and SEQ ID NO: 5301 (RNA)), and growth measured daily for up to 4 days post transfection.
# (§4) siRNA-mediated RNAi was also determined on a panel of different cell lines. A549, SK-MeI-5, wt HCT-116, HCT-116−/−p53 and MCF-7 cells were transfected with 10 nM siRNAs targeting YBX-1 and growth inhibition determined as described above. The YBX1 siRNAs are given in SEQ ID NO: 4981 to 4985 (DNA) and SEQ ID NO: 5276-5280 (RNA). A non-specific siRNA (SEQ ID NO: 4804 (DNA) and SEQ ID NO: 5301 (RNA)) was used as control. Growth inhibition by the siRNAs, given in Table 14, was standardized against the inhibition obtained with the control siRNA.
# HCT-116 and A549 cells were transfected with 0.1, 1.0 and 10 nM siRNA targeting TYMS and DHFR (SEQ ID NO: 4833 to 4838 (DNA), and SEQ ID NO: 5139-5144 (RNA)) using Lipofectamine™ RNAiMAX and incubated for 96 h, in either normal fetal calf serum or serum dialyzed to remove low molecular weight molecules (cut-off 10 kDa). Growth of cells was measured by measuring the total DNA content per well using the SYBR Green assay as described above, and values are given as the percentage of the averaged control values. […] Inhibition increased with increasing siRNA concentration, which was not observed with a non-specific control siRNA. […]
# HCT-116 p53 null cells = assay: Growth inhibition of siRNA-transfected p53 null HCT-116 cells, SYBR Green I DNA content; format: cell-based; details: for growth inhibition, HCT-116 −/−p53 cells: standardized against control siRNA
# Protocol: as §1, §2, §3, §4
# [1] = 10 nM siRNA, DNA content 96 hours after transfection
substance,measurement,setting,value
SEQ ID NO: 4924: siRNA targeting SLC16A1 (MCT1) (chain 1 TTAGACTTATCTTTCCCTGCCTTGG; chain 2 UUAGACUUAUCUUUCCCUGCCUUGG; chemistry not given here; one strand in two spellings),Growth Inhibition in A549 cells by 10 nM siRNA,A549 cells; [1],++ (inhibits by at least 75%)
SEQ ID NO: 4932: siRNA targeting SLC29A1 (ENT1) (chain 1 TGATAAAGTAGCCGAAGGCACTTTC; chain 2 UGAUAAAGUAGCCGAAGGCACUUUC; chemistry not given here; one strand in two spellings),Growth Inhibition in A549 cells by 10 nM siRNA,A549 cells; [1],− (no growth inhibition)
SEQ ID NO: 4982: siRNA targeting YBX1 (chain 1 TTTGCTGGTAATTGCGTGGAGGACC; chain 2 UUUGCUGGUAAUUGCGUGGAGGACC; chemistry not given here; one strand in two spellings),"growth inhibition, wt HCT-116 cells",wt HCT-116 cells; 10 nM siRNA,+++ (At least 70% inhibition)
same,"growth inhibition, A549 cells",A549 cells; 10 nM siRNA,+++ (At least 70% inhibition)
same,"growth inhibition, HCT-116 −/−p53 cells",HCT-116 p53 null cells; 10 nM siRNA,+++ (At least 70% inhibition)
SEQ ID NO: 4983: siRNA targeting YBX1 (chain 1 TACTGTGGTCGACGCCCATAGGGTC; chain 2 UACUGUGGUCGACGCCCAUAGGGUC; chemistry not given here; one strand in two spellings),"growth inhibition, A549 cells",A549 cells; 10 nM siRNA,+ (At least 20% inhibition)
SEQ ID NO: 4984: siRNA targeting YBX1 (chain 1 CAAGGTAGACCAGTGAGGCAGAATA; chain 2 CAAGGUAGACCAGUGAGGCAGAAUA; chemistry not given here; one strand in two spellings),"growth inhibition, wt HCT-116 cells",wt HCT-116 cells; 1 nM siRNA,+* (At least 20% inhibition)
same,"growth inhibition, A549 cells",A549 cells; 5 nM siRNA,++** (At least 50% inhibition)
same,"growth inhibition, HCT-116 −/−p53 cells",HCT-116 p53 null cells; 1 nM siRNA,+* (At least 20% inhibition)
SEQ ID NO: 4985: siRNA targeting YBX1 (chain 1 CAGCCTAGAGAGGACGGCAATGAAG; chain 2 CAGCCUAGAGAGGACGGCAAUGAAG; chemistry not given here; one strand in two spellings),"growth inhibition, wt HCT-116 cells",wt HCT-116 cells; 1 nM siRNA,−* (No inhibition)
same,"growth inhibition, A549 cells",A549 cells; 5 nM siRNA,+** (At least 20% inhibition)
same,"growth inhibition, HCT-116 −/−p53 cells",HCT-116 p53 null cells; 1 nM siRNA,−* (No inhibition)
"SEQ ID NO: 5307: Stealth siRNA targeting RRM2 (chain 1 AATTCATCCCAATGAGCTTCACAGG; chain 2 AAUUCAUCCCAAUGAGCUUCACAGG; Stealth siRNA, chemical pattern not given here; one strand in two spellings)",Growth Inhibition in A549 cells,A549 cells; [1],++ (inhibits by at least 75%)
same,"growth inhibition, p53 null HCT-116","HCT-116 p53 null cells; 1.0 and 10 nM siRNA, up to 4 days, compared with p53 wt",more growth inhibitory
